Where two headings read alike, the source gives them in different places.
Key:
HepG2 cells = assay: HepG2 cytotoxicity assay; format: cell-based; settings: mean
Description: After incubation, plates and CellTiter-Glo Reagent (G7571, Promega) were equilibrated at room temperature for 30 min before proceeding to develop the luminescent signal. Using a Multidrop combi dispenser, 25 μl per well of the signal developer were added to the plates and after 10 min at room temperature for stabilization, plates were read on the ViewLux system (Perkin Elmer).

[1] = tested on: P. falciparum stages IV–V gametocytes; assay: Gametocytocidal ATP-depletion assay (gametocyte ATP bioluminescence); format: cell-based, Plasmodium falciparum
Description: In parallel, the set of confirmed hits from the Pf FGAA screen was cross-compared in the gametocyte ATP-depletion assay, at 2 μM single concentration (Supplementary Data 1). This assay monitors ATP levels as surrogate of gametocyte viability.
‘Viability' of mature gametocytes was determined using the gametocyte ATP bioluminiscence assay. Briefly, stages IV–V gametocyte cultures were double-purified by differential sedimentation followed by magnetic isolation. Then, parasites (50 μl per well containing 12,500 gametocytes) were added to compound pre-dispensed 384-well plates (781091, Greiner Bio-One) and incubated at 37 °C for 48 h (3% O2, 5% CO2 and 92% N2). BacTiter-Glo kit (G8231, Promega) was used to determine the ATP levels of ‘live' parasites according to the manufacturer's instructions. After reagent addition (50 μl per well), luminescence of the plates was measured using a microplate reader (HTS counter Victor, Wallac).

[2] = tested on: P. falciparum asexual blood stages; settings: read-out: Pf Asexual blood stages XC50, cited from earlier work
[3] = tested on: P. falciparum stage V female gametocytes; assay: P. falciparum female gametocyte activation assay (Pf FGAA), 24 h or 48 h preincubation, Pfs25 expression readout; format: cell-based, Plasmodium falciparum NF54; settings: mean, read-out: Gametocytes mean Pf FGAA IC50
Description: P. falciparum NF54 (originally isolated from an imported malaria case in the Netherlands in the 1980s; BEI Resources, cat. no. MRA-1000) asexual-stage culture was performed as described by Trager and Jensen[37]. Cultures synchronized at the ring stage were used to start gametocyte cultures (day 0) at 1% parasitaemia and 4% haematocrit in 200 ml final volume using culture bottles (Nalgene 3110-42, Thermo Scientific). Complete culture medium (RPMI 1640 supplemented with 25 mM HEPES, 50 μg ml^−1 hypoxanthine, 2 g l^−1 NaHCO3 and 10% pooled human male type A+ serum) was totally replaced daily for 14 days without fresh erythrocyte addition. Human serum was obtained from Interstate Blood Bank, A^+ serotype; no aspirin 2 h before drawing and no antimalarials 2 weeks before drawing. To ensure a stable temperature at 37 °C, which is crucial for gametocyte production and maturation, pre-warmed medium and a slide warmer (XH-2001, Premiere) were used. Under these conditions, parasitaemia reaches a peak of asexual stages on days 4–5, and the first gametocytes are differentiated in culture on day 6. Sexual-stage development was monitored microscopically by Giemsa-stained thin blood smears at day 7 (mainly asexual stages and stages I to III gametocytes) and day 14 (stages IV and V gametocytes).
Cultures showing mainly stage V gametocytes were purified by differential sedimentation as previously reported. The gametocyte concentration was adjusted to plate 8,000 gametocytes per well (100 μl per well) in 384-well poly-D-lysine coated plates (781946, Greiner Bio-One) containing the compounds to test. […] Female gametocyte activation was then triggered by temperature drop and addition of xanthurenic acid (D120804, Sigma) as previously described. To detect female gametes, monoclonal anti-Pfs25 antibody[38] 4B7 (BEI Resources (formerly MR4), cat. no. MRA-315) conjugated to the Cy3 fluorochrome (GE Healthcare) was added to ookinete medium (RPMI 1640 supplemented with 25 mM HEPES, 50 μg ml^−1 hypoxanthine, 2 g l^−1 NaHCO3, 100 μM xanthurenic acid and 20% human serum) at a final concentration of 0.5 μg ml^−1. Activated cultures were then kept at 26 °C for 24 h protected from light, and image acquisition was performed in the Opera High-Content Screening System (PerkinElmer). Using × 10 air objective, five images per well were taken using 532 nm excitation. Images were analysed with a Columbus image data storage and analysis system (PerkinElmer) based on a script specifically designed for this assay that considers size, roundness and intensity of fluorescence of the female activated gametocytes.
Compounds were dissolved in 100% DMSO and dispensed in the 384-well plates using an Echo-CRS liquid handler. Compounds were tested in 2–3 independent experiments. […] Based on that, Z′ factor was calculated for each plate and only those ones with values higher than 0.4 were considered acceptable for data analysis.
Assay performance statistics, such as signal to background ratio, Z′ and robust 3 s.d. activity cut-off were calculated using templates in ActivityBase XE (IDBS, Guilford, Surrey, UK). Hit population analysis and visualization were conducted using Spotfire DecisionSite (Spotfire, Inc., Somerville, MA, USA). The pIC50 (−log IC50) values were obtained using the ActivityBase XE nonlinear regression function in the full curve analysis bundle.

[4] = TCAMS data, ref 1 (Gamo et al., 2010)
[5] = TCAMS asexual blood stage data, ref 1 (Gamo, F. J. et al., Nature 465, 305-310, 2010)
[6] = P. falciparum female gametocytes

For `CN(C)CCCOc1ccc(CN2CCC(c3c[nH]c4ccc(NCC5CCCCC5)cc34)CC2)cc1.O=C(O)C(F)(F)F` [TCMDC-140737], the “HepG2 cells mean TOX50” value (HepG2 cells) is given as 5.48 µM, the “Gametocytes mean ATP inhibition at 2µM (%)” value [1] is given as -13.51% and the IC50 [2, 4] is given as 680 nM. For the same compound, the IC50 [3] was 560 nM.
For `c1cc(C2=N[C@H]3CCCC[C@@H]3N2)ccc1OCCCOc1ccc(C2=N[C@@H]3CCCC[C@H]3N2)cc1` [TCMDC-137803], the “HepG2 cells mean TOX50” value (HepG2 cells) is listed as 38.02 µM, the “Gametocytes mean ATP inhibition at 2µM (%)” value [1] is listed as 57.55% and the IC50 [2, 4] is listed as 730 nM. For the same compound, the IC50 [3] was 11500 nM.
For `CC(C)(C)c1ccc(C(=O)Nc2cccc(Nc3c(C(=O)NCc4cccc(C(F)(F)F)c4)cnc4c(O)cccc34)c2)cc1.O=C(O)C(F)(F)F` [TCMDC-139610], the “Gametocytes mean ATP inhibition at 2µM (%)” value [1] is given as 83.54%, the IC50 [2, 4] is given as 1090 nM and the IC50 [3] is given as 3630 nM.
In the case of `Cl.c1ccc2c(Nc3ccc(OCCOCCOc4ccc(Nc5c6ccccc6nc6ccccc56)cc4)cc3)c3ccccc3nc2c1` [TCMDC-137355], the “HepG2 cells mean TOX50” value (HepG2 cells) is given as 5.59 µM, the “Gametocytes mean ATP inhibition at 2µM (%)” value [1] is given as -18.54% and the IC50 [2, 4] is given as 280 nM.
In the case of `COc1ccc(CNC(=O)c2cnc3c(O)cccc3c2Nc2cccc(NC(=O)c3ccc(Cl)c(Cl)c3)c2)cc1.O=C(O)C(F)(F)F` [TCMDC-139607], the “Gametocytes mean ATP inhibition at 2µM (%)” value [1] is given as 90.02%, the IC50 [2, 4] is given as 600 nM and the IC50 [3] is given as 1600 nM.
For `CC(=NNC(=S)NC(C)(C)C)c1ccccn1` [TCMDC-137783], the “Gametocytes mean ATP inhibition at 2µM (%)” value [1] is listed as 84.85%, the IC50 [2, 4] is listed as 160 nM and the IC50 [3] is listed as 40 nM.
In the case of `Cc1cc(C(=O)Nc2nc(-c3ccccn3)nc3ccsc23)no1` [TCMDC-135243], the “Gametocytes mean ATP inhibition at 2µM” value [1] is given as 53.53%, the IC50 [2, 5] is given as 810 nM and the IC50 [3, 6] is given as 350 nM.
For `S=C(NN=Cc1ccccn1)NC1CC2C=CC1C2` (centres unmarked) [TCMDC-125752], the “Gametocytes mean ATP inhibition at 2µM” value [1] is given as 74.38%, the IC50 [2, 5] is given as 720 nM and the IC50 [3, 6] is given as 15.3 nM.
For `CC(=NNC(S)=NCc1ccco1)c1ccccn1` [TCMDC-137906], the “Gametocytes mean ATP inhibition at 2µM (%)” value [1] is given as 77.01%, the IC50 [2, 4] is given as 250 nM and the IC50 [3] is given as 20 nM.
For `Cc1ccc(Nc2nc(-c3ccccn3)cs2)nc1` [TCMDC-125854], the “Gametocytes mean ATP inhibition at 2µM” value [1] is listed as 82.15%, the IC50 [2, 5] is listed as 750 nM and the IC50 [3, 6] is listed as 27.3 nM.
In the case of `CCN(CC)CC(O)CNc1c2ccc([N+](=O)[O-])cc2nc2cc(OC)c(OC)cc12.Cl` (centres unmarked) [TCMDC-138079], the “Gametocytes mean ATP inhibition at 2µM (%)” value [1] is listed as 44.60%, the IC50 [2, 4] is listed as 270 nM and the IC50 [3] is listed as 3890 nM.
For `Cc1c(Cl)cccc1S(=O)(=O)Nc1ccc(CCN2CCC(N)CC2)cc1.Cl` [TCMDC-134083], the “HepG2 cells mean TOX50” value (HepG2 cells; HepG2 cells) is given as 13.86 µM, the “Gametocytes mean ATP inhibition at 2µM” value [1] is given as -1.32% and the IC50 [2, 5] is given as 1460 nM.
For `CCn1c(-c2nonc2N)nc2c(-c3cccc(NC(=O)NC45CC6CC(CC(C6)C4)C5)c3)ncc(OCCCN)c21.O=C(O)C(F)(F)F` [TCMDC-136246], the “HepG2 cells mean TOX50” value (HepG2 cells) was 6.10 µM, the “Gametocytes mean ATP inhibition at 2µM (%)” value [1] was -16.91% and the IC50 [3] was 1360 nM.
In the case of `CC(Cc1ccc(CNC(=O)NCc2ccc(CC(C)NCCc3cccc(Cl)c3)cc2)cc1)NCCc1cccc(Cl)c1` (centres unmarked) [TCMDC-139648], the “HepG2 cells mean TOX50” value (HepG2 cells) is given as 3.94 µM, the “Gametocytes mean ATP inhibition at 2µM (%)” value [1] is given as 12.15% and the IC50 [2, 4] is given as 690 nM.
For `COc1ccc(CNC(=O)c2cnc3c(O)cccc3c2Nc2cccc(NC(=O)c3ccc(-c4ccccc4)cc3)c2)cc1.O=C(O)C(F)(F)F` [TCMDC-139611], the “Gametocytes mean ATP inhibition at 2µM (%)” value [1] is listed as 88.95%, the IC50 [2, 4] is listed as 940 nM and the IC50 [3] is listed as 1820 nM.
In the case of `CNC(=S)NN=C(C)c1ccccn1` [TCMDC-123475], the “Gametocytes mean ATP inhibition at 2µM” value [1] is given as 81.04%, the IC50 [2, 5] is given as 270 nM and the IC50 [3, 6] is given as 14 nM.
For `Oc1c(C(Nc2nc3ccccc3s2)c2ccccc2)ccc2cccnc12` (centres unmarked) [TCMDC-125565], the “Gametocytes mean ATP inhibition at 2µM” value [1] is given as 91.61%, the IC50 [2, 5] is given as 650 nM and the IC50 [3, 6] is given as 3030 nM.
In the case of `c1ccc(-c2csc(Nc3nc4cc5c(cc4s3)OCO5)n2)nc1` [TCMDC-124550], the “Gametocytes mean ATP inhibition at 2µM” value [1] is listed as 56.70%, the IC50 [2, 5] is listed as 580 nM and the IC50 [3, 6] is listed as 32.3 nM.
For `NC(=Nc1nc(-c2ccccn2)cc2ccccc12)c1cccc(Cl)c1` [TCMDC-123745], the “Gametocytes mean ATP inhibition at 2µM” value [1] is listed as 49.04%, the IC50 [2, 5] is listed as 310 nM and the IC50 [3, 6] is listed as 50 nM.
